Each block holds one compound with its values, some of them ahead of it. Active and inactive are the calls of the source. The calls are words filed in the database; no cut-off is given here.
Experiments:
[1] = target: T1, Lysine-specific histone demethylase 1A (Homo sapiens, UniProt O60341); experiment: Inhibition of recombinant LSD1 (unknown origin) expressed in Escherichia coli BL21(DE3) strain using H3K4me2 peptide as substrate at 10 uM incubated for 30 mins by fluorescence based analysis relative to control
[2] = target: T1, Lysine-specific histone demethylase 1A; experiment: Inhibition of recombinant LSD1 (unknown origin) expressed in Escherichia coli BL21(DE3) strain using H3K4me2 peptide as substrate incubated for 30 mins by fluorescence based analysis
[3] = target: T1, Lysine-specific histone demethylase 1A; experiment: Binding affinity to recombinant LSD1 (unknown origin) assessed as thermal stability at 4 uM by thermal shift assay
BGC-823 [4] = experiment: Inhibition of stemness in human BGC-823 cells assessed as inhibition of CD44 expression at 1 to 4 uM measured after 5 days by Western blot analysis; assay type: functional, cell-based; conditions: dose 1-4 µM, time 5.0 day
MFC [5] = experiment: Antitumor activity against mouse MFC cells xenografted in 615 mouse model assessed as decrease in PD-L1 level administered as IG daily and measured every other day for 14 days by Western blot analysis; assay type: functional; conditions: dose 10-40 mg/kg, time 14.0 day
MFC [6] = experiment: Antitumor activity against mouse MFC cells xenografted in 615 mouse model assessed as increase in IL-2 m-RNA level at 10 to 40 mg/kg, IG administered daily and measured every other day for 14 days; assay type: functional, organism-based; conditions: dose 10-40 mg/kg, time 14.0 day
MFC [7] = experiment: Antitumor activity against mouse MFC cells xenografted in 615 mouse model assessed as suppression in tumor growth administered as IG daily and measured every other day for 14 days by caliper method; assay type: functional; conditions: dose 10-40 mg/kg, time 14.0 day
MFC [8] = experiment: Antitumor activity against mouse MFC cells xenografted in 615 mouse model assessed as increase in TNF-alpha m-RNA level at 10 to 40 mg/kg, IG administered daily and measured every other day for 14 days; assay type: functional, organism-based; conditions: dose 10-40 mg/kg, time 14.0 day
[9] = Toxicity in 615 mouse assessed as at 10 to 40 mg/kg, IG kidney injury administered daily and measured every other day for 14 days; assay type: organism-based; conditions: in vivo, po, 336 h, dose 10-40 mg/kg, time 14 day
MFC [10] = experiment: Downregulation of PD-L1 level in […] cells incubated for 5 days by Western blot analysis; assay type: functional, cell-based; conditions: dose 1-4 µM, time 5.0 day
BGC-823 [11] = experiment: Inhibition of stemness in human BGC-823 cells assessed as inhibition of SOX2 expression at 1 to 4 uM measured after 5 days by Western blot analysis; assay type: functional, cell-based; conditions: dose 1-4 µM, time 5.0 day
BGC-823 [12] = experiment: Cytotoxicity against human BGC-823 cells co-cultured with T cells assessed as increase in IFN-gamma level at 2 uM measured after 5 days by Q-RT-PCR method; assay type: functional, cell-based; conditions: time 5.0 day
BGC-823 [13] = experiment: Cytotoxicity against human BGC-823 cells co-cultured with T cells assessed as increase in IL-2 level at 2 uM measured after 5 days by Q-RT-PCR method; assay type: functional, cell-based; conditions: time 5.0 day
MFC [14] = experiment: Antitumor activity against mouse MFC cells xenografted in 615 mouse model assessed as reduction in tumor weight at 10 to 40 mg/kg, IG administered daily and measured every other day for 14 days […]; assay type: functional, organism-based; conditions: dose 10-40 mg/kg, time 14.0 day
[15] = Toxicity in 615 mouse assessed as at 10 to 40 mg/kg, IG liver injury administered daily and measured every other day for 14 days; assay type: organism-based; conditions: in vivo, po, 336 h, dose 10-40 mg/kg, time 14 day
BGC-823 [16] = experiment: Downregulation of PD-L1 level in human BGC-823 cells incubated for 5 days by Western blot analysis; assay type: functional, cell-based; conditions: dose 1-4 µM, time 5.0 day
[17] = Cytotoxicity against […] cells at 2 uM incubated for 5 days by CCK-8 method relative to control; assay type: functional; conditions: time 5 day
BGC-823 [18] = experiment: Inhibition of stemness in human BGC-823 cells assessed as inhibition of OCT4 expression at 1 to 4 uM measured after 5 days by Western blot analysis; assay type: functional, cell-based; conditions: dose 1-4 µM, time 5.0 day
BGC-823 [19] = experiment: Antimigratory activity against human BGC-823 cells assessed as reduction in cell migration at 1 to 4 uM measured after 24 to 48 hrs by wound healing assay; assay type: functional, cell-based; conditions: dose 1-4 µM, time 24-48 hrs
[20] = target: T1, Lysine-specific histone demethylase 1A; experiment: Inhibition of LSD1 in human BGC-823 cells assessed as suppression of H3K4me2 methylation measured after 5 days by Western blot analysis; assay type: cell-based; conditions: dose 1-4 µM, time 5.0 day
BGC-823 [21] = experiment: Cytotoxicity against human BGC-823 cells co-cultured with T cells assessed as reduction in cell viability measured after 5 days by CCK8 method; assay type: functional, cell-based; conditions: dose 1-4 µM, time 5.0 day
MFC [22] = experiment: Antitumor activity against mouse MFC cells xenografted in 615 mouse model assessed as increase in IFN-gamma m-RNA level at 10 to 40 mg/kg, IG administered daily and measured every other day for 14 days; assay type: functional, organism-based; conditions: dose 10-40 mg/kg, time 14.0 day
[23] = target: T1, Lysine-specific histone demethylase 1A; experiment: Inhibition of LSD1 (unknown origin) human BGC-823 cells assessed as suppression of H3K4me1 methylation measured after 5 days by Western blot analysis; assay type: cell-based; conditions: dose 1-4 µM, time 5.0 day
MFC [24] = experiment: Downregulation of PD-L1 mRNA level in […] cells at 1 to 4 uM incubated for 5 days by Q-RT-PCR analysis; assay type: functional, cell-based; conditions: dose 1-4 µM, time 5.0 day
BGC-823 [25] = experiment: Downregulation of PD-L1 mRNA level in human BGC-823 cells at 1 to 4 uM incubated for 5 days by Q-RT-PCR analysis; assay type: functional, cell-based; conditions: dose 1-4 µM, time 5.0 day
[26] = Toxicity in 615 mouse assessed as change in body weight at 10 to 40 mg/kg, IG administered daily and measured every other day for 14 days; assay type: organism-based; conditions: in vivo, po, 336 h, dose 10-40 mg/kg, time 14 day
[27] = target: Programmed cell death protein 1/Programmed cell death 1 ligand 1 (Homo sapiens) (UniProt Q15116+Q9NZQ7); experiment: Inhibition of recombinant PD-1 binding to PD-L1 in human BGC-823 cells measured after 5 days by DAPI staining based confocal microscopy analysis; assay type: cell-based; conditions: dose 1-4 µM, time 5.0 day
BGC-823 [28] = experiment: Cytotoxicity against human BGC-823 cells co-cultured with T cells assessed as increase in CCR7 level at 2 uM measured after 5 days by Q-RT-PCR method; assay type: functional, cell-based; conditions: time 5.0 day
BGC-823 [29] = experiment: Cytotoxicity against human BGC-823 cells co-cultured with T cells assessed as increase in 4-1BB level at 2 uM measured after 5 days by Q-RT-PCR method; assay type: functional, cell-based; conditions: time 5.0 day
BGC-823 [30] = experiment: Cytotoxicity against human BGC-823 cells co-cultured with T cells assessed as increase in TNF-alpha level at 2 uM measured after 5 days by Q-RT-PCR method; assay type: functional, cell-based; conditions: time 5.0 day

- inhibition [1]: 19.2%
Compound: Cc1cnc(NS(=O)(=O)c2ccc(Nc3c4ccccc4nc4ccccc34)cc2)o1

- inhibition [1]: 57.9%
- IC50 [2]: 3620 nM
Compound: Cc1ccc(Nc2c3ccccc3nc3ccccc23)cc1

- inhibition [1]: 67.8%
- IC50 [2]: 3540 nM
Compound: CC(=O)Nc1ccc(Nc2c3ccccc3nc3ccccc23)cc1

- inhibition [1]: 43.4%
Compound: CC(C)c1ccc(Nc2c3ccccc3nc3ccccc23)cc1

- inhibition [1]: 4.01%
Compound: NS(=O)(=O)c1ccc(Nc2c3ccccc3nc3ccccc23)cc1

- inhibition [1]: 41%
Compound: O=C1COCCN1c1ccc(Nc2c3ccccc3nc3ccccc23)cc1

- inhibition [1]: 68.6%
- IC50 [2]: 3860 nM
Compound: Cc1ccc2cc(Nc3c4ccccc4nc4ccccc34)ccc2n1

- Activity [3]: Active
- inhibition [1]: 100%
- IC50 [2]: 73 nM
- inhibition [20]: Dose-Dependent Effect
- inhibition [23]: Dose-Dependent Effect
Compound: CN1CCN(c2ccc(Nc3c4ccccc4nc4ccccc34)cc2)CC1
- inhibition (BGC-823 [4]): Active
- Activity (MFC [5]): Dose-Dependent Effect
- Activity (MFC [6]): Active
- Activity (MFC [7]): Dose-Dependent Effect
- Activity (MFC [8]): Active
- Activity [9]: Non-Toxic
- Activity (MFC [10]): Dose-Dependent Effect
- inhibition (BGC-823 [11]): Active
- Activity (BGC-823 [12]): Active
- Activity (BGC-823 [13]): Active
- Activity (MFC [14]): Active
- Activity [15]: Non-Toxic
- Activity (BGC-823 [16]): Dose-Dependent Effect
- Activity [17]: <10%
- inhibition (BGC-823 [18]): Active
- Activity (BGC-823 [19]): Active
- Activity (BGC-823 [21]): Dose-Dependent Effect
- Activity (MFC [22]): Active
- Activity (MFC [24]): Active
- Activity (BGC-823 [25]): Active
- Activity [26]: Toxic
- inhibition [27]: Dose-Dependent Effect
- Activity (BGC-823 [28]): Active
- Activity (BGC-823 [29]): Active
- Activity (BGC-823 [30]): Active

- inhibition [1]: 79.7%
- IC50 [2]: 740 nM
Compound: CSc1ccc(Nc2c3ccccc3nc3ccccc23)cc1

- inhibition [1]: 100%
- IC50 [2]: 220 nM
Compound: c1ccc2c(Nc3ccc(N4CCNCC4)cc3)c3ccccc3nc2c1

- inhibition [1]: 100%
- IC50 [2]: 660 nM
Compound: CS(=O)(=O)Nc1ccc(Nc2c3ccccc3nc3ccccc23)cc1

- inhibition [1]: 25%
Compound: c1ccc2c(Nc3ccc(N4CCCCC4)cc3)c3ccccc3nc2c1

- inhibition [1]: 99.2%
- IC50 [2]: 1050 nM
Compound: c1ccc(Nc2c3ccccc3nc3ccccc23)cc1

- inhibition [1]: 100%
- IC50 [2]: 1160 nM
Compound: COc1ccc(Nc2c3ccccc3nc3ccccc23)cc1

- inhibition [1]: 100%
- IC50 [2]: 450 nM
Compound: c1ccc2c(Nc3ccc(N4CCOCC4)cc3)c3ccccc3nc2c1

- inhibition [1]: 100%
- IC50 [2]: 600 nM
Compound: Nc1ccc(Nc2c3ccccc3nc3ccccc23)cc1

- inhibition [1]: 29.8%
Compound: N#Cc1ccc(Nc2c3ccccc3nc3ccccc23)cc1

More lines, now with the values behind:

Compound: CN1CCN(c2ccc(Nc3c4ccccc4nc4ccc(Cl)cc34)cc2)CC1
- inhibition [1]: 100%
- IC50 [2]: 280 nM

Compound: c1ccc2c(NCCN3CCOCC3)c3ccccc3nc2c1
- inhibition [1]: 22.4%

Compound: Cc1cc2nc3ccccc3c(Nc3ccc(N4CCN(C)CC4)cc3)c2cc1C
- inhibition [1]: 100%
- IC50 [2]: 85 nM

Compound: COc1cccc2c(Nc3ccc(N4CCN(C)CC4)cc3)c3ccccc3nc12
- inhibition [1]: 100%
- IC50 [2]: 130 nM

Compound: CCN1CCN(c2ccc(Nc3c4ccccc4nc4ccccc34)cc2)CC1
- inhibition [1]: 100%
- IC50 [2]: 110 nM

Compound: COc1ccc2c(Nc3ccc(N4CCN(C)CC4)cc3)c3ccccc3nc2c1
- inhibition [1]: 100%
- IC50 [2]: 140 nM

Compound: COc1ccc2nc3ccccc3c(Nc3ccc(N4CCN(C)CC4)cc3)c2c1
- inhibition [1]: 100%
- IC50 [2]: 230 nM

Compound: Nc1ccc(Sc2c3ccccc3nc3ccccc23)cc1
- inhibition [1]: 100%
- IC50 [2]: 970 nM

Compound: CN1CCN(Cc2ccc(Nc3c4ccccc4nc4ccccc34)cc2)CC1
- inhibition [1]: 45.6%

Compound: c1ccc2c(NN3CCCCC3)c3ccccc3nc2c1
- inhibition [1]: 95.3%
- IC50 [2]: 1660 nM

Compound: CC(C)c1ccc2nc3ccccc3c(Nc3ccc(N4CCN(C)CC4)cc3)c2c1
- inhibition [1]: 100%
- IC50 [2]: 230 nM

Compound: c1ccc2c(Nc3ccc4c(c3)OCCO4)c3ccccc3nc2c1
- inhibition [1]: 97.7%
- IC50 [2]: 850 nM

Compound: Cc1ccc2nc3c(C)c(C)ccc3c(Nc3ccc(N4CCN(C)CC4)cc3)c2c1
- inhibition [1]: 100%
- IC50 [2]: 100 nM

Compound: c1ccc(CN2CCN(c3ccc(Nc4c5ccccc5nc5ccccc45)cc3)CC2)cc1
- inhibition [1]: 97%
- IC50 [2]: 2390 nM

Compound: Nc1ccccc1Nc1c2ccccc2nc2ccccc12
- inhibition [1]: 100%
- IC50 [2]: 8230 nM

Compound: Fc1ccc(C(c2ccc(F)cc2)N2CCN(c3ccc(Nc4c5ccccc5nc5ccccc45)cc3)CC2)cc1
- inhibition [1]: 68.1%
- IC50 [2]: 710 nM

Compound: COc1cc(NS(C)(=O)=O)ccc1Nc1c2ccccc2nc2ccccc12 [AMSACRINE]
- inhibition [1]: 100%
- IC50 [2]: 880 nM

Compound: CCn1c2ccccc2c2ccc(Nc3c4ccccc4nc4ccccc34)cc21
- inhibition [1]: 97.2%
- IC50 [2]: 700 nM

Compound: Nc1ccc(Oc2c3ccccc3nc3ccccc23)cc1
- inhibition [1]: 100%
- IC50 [2]: 1720 nM

Compound: CN1CCN(c2ccc(Nc3c4ccccc4nc4c(N(C)C)cccc34)cc2)CC1
- inhibition [1]: 97%
- IC50 [2]: 6030 nM

From ChEMBL document CHEMBL5346916, “Discovery of acridine-based LSD1 inhibitors as immune activators targeting LSD1 in gastric cancer” (Eur J Med Chem, 2023)
